Results taken from patent publication US20130184222A1, “[…] ACTIVE COMPOSITIONS AND THEIR METHODS OF USE” (AGIOS PHARMACEUTICALS, INC, priority 2010, published 2013).

Assays:
IDH1 R132H = IDH1 R132H (Homo sapiens, UniProt O75874, R132H); test: In vitro assay for IDH1 R132H inhibitors (NADPH/aKG, resazurin detection); type: biochemical; details: Table 4B; 0.2 μg/ml IDH1 R132H, 50 minutes at room temperature; read-out: IC50, IDH1 R132H Inhibition
Outline: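 Reaction ran 50 min at room temperature in Tris pH 7.5 buffer with 150 mM NaCl, 10 mM MgCl2 and 0.03% BSA. Mix concentrations were 0.2 μg/ml mutant enzyme, 8 uM NADPH and 2 mM aKG. Detection added 30 μM resazurin, with resorufin fluorescence (Ex544/Em590) measured 5 min later.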

U87MG cells = test: Cellular assay: inhibition of 2-HG production in U87MG cells (LC-MS, 48 hours); type: cell-based; details: Homo sapiens, U-87 MG, 2-HG in media by LC-MS
Outline: (§1)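 HT1080 or U87MG cells (5000/well, DMEM + 10% FBS) seeded overnight, then exposed to compound (0.2% DMSO final) for 48 h; medium 2-HG measured by LC-MS. Viability read by CellTiter-Glo luminescence at 72 h.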

HT1080 cells = test: Cellular assay: inhibition of 2-HG production in HT1080 cells (LC-MS, 48 hours); type: cell-based; details: Homo sapiens, HT-1080, 2-HG in media by LC-MS
Outline: as §1

Sequence of IDH1 R132H (O75874 whole entry R132H): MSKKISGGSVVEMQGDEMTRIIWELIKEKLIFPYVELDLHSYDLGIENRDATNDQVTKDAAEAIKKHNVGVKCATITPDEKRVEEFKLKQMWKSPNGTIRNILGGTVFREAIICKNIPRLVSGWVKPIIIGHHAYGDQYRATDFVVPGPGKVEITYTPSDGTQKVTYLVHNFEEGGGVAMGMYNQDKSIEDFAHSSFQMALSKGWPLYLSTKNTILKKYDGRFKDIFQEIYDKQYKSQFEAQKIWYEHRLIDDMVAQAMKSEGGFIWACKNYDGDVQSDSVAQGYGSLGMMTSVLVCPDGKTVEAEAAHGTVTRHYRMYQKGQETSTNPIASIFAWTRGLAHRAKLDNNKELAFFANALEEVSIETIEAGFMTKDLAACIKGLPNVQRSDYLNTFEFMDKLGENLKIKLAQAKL

SMILES | IC50 (IDH1 R132H) [nM] | IC50 (U87MG cells) [nM] | IC50 (HT1080 cells) [nM]
Cc1ccccc1C(C(=O)NC1CCCCC1)N(C(=O)CNc1ncc[nH]1)c1cccc(F)c1 (stereo not drawn) [Compound 308] | 100 to 1000 | ≤ 250 | 1000 to 5000
Cc1cnn(CC(=O)N(c2cccc(F)c2)C(C(=O)NC2CCCCC2)c2ccccc2C)c1 (stereo not drawn) [Compound 309] | 100 to 1000 | 1000 to 5000 | 250 to 1000
Cc1ccccc1C(C(=O)NC1CCCCC1)N(C(=O)CNc1cncc(F)c1)c1cccc(F)c1 (stereo not drawn) [Compound 310] | 100 to 1000 | 1000 to 5000 | 250 to 1000
Cc1ccccc1C(C(=O)NC1CCCCC1)N(C(=O)Cc1ccncc1)c1cccc(F)c1 (stereo not drawn) [Compound 311] | ≤ 100 | ≤ 250 | ≤ 250
Cc1nccn1CC(=O)N(c1cccc(F)c1)C(C(=O)NC1CCCCC1)c1ccccc1F (stereo not drawn) [Compound 312] | 100 to 1000 | ≤ 250 | 1000 to 5000
CN(C)C(=O)Oc1ccc(CC(=O)N(c2cccc(F)c2)C(C(=O)NC2CCCCC2)c2ccccc2F)cc1 (stereo not drawn) [Compound 313] | ≤ 100 | ≤ 250 | ≤ 250
Cc1nccn1CC(=O)N(c1cccc(F)c1)C(C(=O)NC1CCCCC1)c1ccccc1Cl (stereo not drawn) [Compound 314] | ≤ 100 | ≤ 250 | ≤ 250
Cc1ccccc1C(C(=O)NC1CCCCC1)N(C(=O)Cn1ccnc1C)c1cccc(-c2ccnn2C)c1 (stereo not drawn) [Compound 315] | 100 to 1000 | ≤ 250 | 1000 to 5000
Cc1ccccc1C(C(=O)NC1CCCCC1)N(C(=O)CNc1ccccn1)c1cccc(F)c1 (stereo not drawn) [Compound 316] | ≤ 100 | 250 to 1000 | ≤ 250
Cc1ccccc1C(C(=O)NC1CCCCC1)N(C(=O)Cn1cccn1)c1cccc(F)c1 (stereo not drawn) [Compound 317] | 100 to 1000 | 1000 to 5000 | 250 to 1000
Cc1ccccc1C(C(=O)NC1CCCCC1)N(C(=O)CNC1Cc2cccnc2C1)c1cccc(F)c1 (stereo not drawn) [Compound 318] | 100 to 1000 | 250 to 1000 | 250 to 1000
Cc1ccccc1C(C(=O)NC1CCCCC1)N(C(=O)Cn1cc[nH]c1=O)c1cccc(F)c1 (stereo not drawn) [Compound 319] | 100 to 1000 | 1000 to 5000 | 1000 to 5000
O=C(NC1CCCCC1)C(c1ccccc1F)N(C(=O)Cc1cscn1)c1cccc(F)c1 (stereo not drawn) [Compound 320] | ≤ 100 | 250 to 1000 | 250 to 1000
O=C(NC1CCCCC1)C(c1ccccc1F)N(C(=O)Cn1cnc2ccccc21)c1cccc(F)c1 (stereo not drawn) [Compound 321] | ≤ 100 | ≤ 250 | ≤ 250
N#Cc1ccc(NCC(=O)N(c2cccc(F)c2)C(C(=O)NC2CCCCC2)c2ccccc2Cl)cc1 (stereo not drawn) [Compound 322] | ≤ 100 | ≤ 250 | ≤ 250
O=C(NC1CCCCC1)C(c1ccccc1F)N(C(=O)Cn1ccc2ncccc21)c1cccc(F)c1 (stereo not drawn) [Compound 324] | 100 to 1000 | 250 to 1000 | 1000 to 5000
Cc1ccccc1C(C(=O)NC1CC2CC2C1)N(C(=O)Cn1ccc2ncccc21)c1cccc(F)c1 (stereo not drawn) [Compound 325] | 100 to 1000 | 1000 to 5000 | 1000 to 5000
Cc1ccccc1C(C(=O)NC1CCCCC1)N(C(=O)Cn1ccnc1N)c1cccc(F)c1 (stereo not drawn) [Compound 326] | 100 to 1000 | ≤ 250 | 250 to 1000
Cc1ccccc1C(C(=O)NC1CC2CC2C1)N(C(=O)Cn1ccnc1C)c1cccc(F)c1 (stereo not drawn) [Compound 327] | 100 to 1000 | ≤ 250 | 1000 to 5000
CCC(=O)N1CCCCC1C(=O)N(c1cccc(F)c1)C(C(=O)NC1CCCCC1)c1ccccc1C (stereo not drawn) [Compound 328] | 100 to 1000 | 1000 to 5000 | 1000 to 5000
Cc1ccccc1C(C(=O)NC1CCC(F)(F)CC1)N(C(=O)Cn1ccnc1C)c1cccc(F)c1 (stereo not drawn) [Compound 330] | 100 to 1000 | ≤ 250 | 250 to 1000

SMILES | IC50 (IDH1 R132H) [nM] | IC50 (U87MG cells) [nM] | IC50 (HT1080 cells) [nM]
Cc1ccccc1C(C(=O)NC1CCC(F)(F)CC1)N(C(=O)COc1ccccn1)c1cccc(F)c1 (stereo not drawn) [Compound 331] | ≤ 100 | ≤ 250 | ≤ 250
Cc1ccccc1[C@@H](C(=O)NC1CCCCC1)N(C(=O)[C@H]1CCCCN1C(=O)OC(C)(C)C)c1cccc(F)c1 [Compound 332] | 100 to 1000 | 1000 to 5000 | 250 to 1000
Cc1ccccc1C(C(=O)NC1CC2CC2C1)N(C(=O)CNc1ncccc1F)c1cccc(F)c1 (stereo not drawn) [Compound 333] | 100 to 1000 | 1000 to 5000 | ≤ 250
COC(=O)NCC(=O)N(c1cccc(F)c1)C(C(=O)NC1CCCCC1)c1ccccc1C (stereo not drawn) [Compound 334] | ≤ 100 | ≤ 250 | ≤ 250
COC(=O)N1CCCC[C@@H]1C(=O)N(c1cccc(F)c1)[C@H](C(=O)NC1CCCCC1)c1ccccc1C [Compound 335] | 100 to 1000 | 1000 to 5000 | 250 to 1000
COC(=O)N1CCCC[C@H]1C(=O)N(c1cccc(F)c1)[C@H](C(=O)NC1CCCCC1)c1ccccc1C [Compound 336] | 100 to 1000 | 250 to 1000 | 250 to 1000
Cc1ccccc1[C@@H](C(=O)NC1CCCCC1)N(C(=O)[C@H]1CCCCN1C(=O)OC(C)C)c1cccc(F)c1 [Compound 338] | 100 to 1000 | 1000 to 5000 | 250 to 1000
Cc1ccccc1[C@@H](C(=O)NC1CCCCC1)N(C(=O)[C@@H]1CCCCN1C(=O)OC(C)C)c1cccc(F)c1 [Compound 339] | 100 to 1000 | 1000 to 5000 | 1000 to 5000
Cc1ccccc1[C@@H](C(=O)NC1CCCCC1)N(C(=O)[C@H]1CCCN1C(=O)OC(C)(C)C)c1cccc(F)c1 [Compound 340] | 100 to 1000 | 250 to 1000 | 1000 to 5000
COC(=O)N(C)CC(=O)N(c1cccc(F)c1)C(C(=O)NC1CCCCC1)c1ccccc1C (stereo not drawn) [Compound 341] | ≤ 100 | ≤ 250 | ≤ 250
Cc1ccccc1C(C(=O)NC1CCC(F)(F)CC1)N(C(=O)CNc1ncccc1F)c1cccc(F)c1 (stereo not drawn) [Compound 342] | 100 to 1000 | 250 to 1000 | 250 to 1000
Cc1ccccc1C(C(=O)NC1CCCCC1)N(C(=O)Cn1ccnc1C(F)(F)F)c1cccc(F)c1 (stereo not drawn) [Compound 344] | 100 to 1000 | ≤ 250 | 250 to 1000
CCOC(=O)N1CCCC[C@@H]1C(=O)N(c1cccc(F)c1)[C@H](C(=O)NC1CCCCC1)c1ccccc1C [Compound 345] | 100 to 1000 | 1000 to 5000 | 1000 to 5000
Cc1ccccc1[C@@H](C(=O)NC1CCCCC1)N(C(=O)[C@H]1CCCCN1S(C)(=O)=O)c1cccc(F)c1 [Compound 346] | 100 to 1000 | 250 to 1000 | 250 to 1000
CCC(=O)N1CCCC[C@@H]1C(=O)N(c1cccc(F)c1)[C@H](C(=O)NC1CCCCC1)c1ccccc1C [Compound 347] | 100 to 1000 | 1000 to 5000 | 1000 to 5000
[2H]C1([2H])C([2H])([2H])C([2H])([2H])C([2H])(NC(=O)C(c2ccccc2C)N(C(=O)COc2ccccn2)c2cccc(F)c2)C([2H])([2H])C1([2H])[2H] (stereo not drawn) [Compound 351] | ≤ 100 | ≤ 250 | ≤ 250
Cc1ccccc1C(C(=O)NC1CC2CC2C1)N(C(=O)COc1ccccn1)c1cccc(F)c1 (stereo not drawn) [Compound 354] | 100 to 1000 | 250 to 1000 | 250 to 1000
COC(=O)N1CCC[C@H]1C(=O)N(c1cccc(F)c1)[C@H](C(=O)NC1CCCCC1)c1ccccc1C [Compound 356] | ≤ 100 | ≤ 250 | ≤ 250
COC(=O)NCC(=O)N(c1ccccc1F)C(C(=O)NC1CCCCC1)c1ccccc1C (stereo not drawn) [Compound 357] | 100 to 1000 | 250 to 1000 | 250 to 1000
CCOC(=O)N1CCC[C@H]1C(=O)N(c1cccc(F)c1)[C@H](C(=O)NC1CCCCC1)c1ccccc1C [Compound 359] | ≤ 100 | ≤ 250 | 250 to 1000
